# Assay results published in ChEMBL document CHEMBL1158875, “Plakinidine D, a new pyrroloacridine alkaloid from two ascidians of the genus Didemnum” (J Nat Prod, 1997).
# Activity calls are given as the source filed them. The calls are words filed in the database; no cut-off is given here.
# Test system: HCT-116
# Test: Cytotoxicity against human HCT116 cells at 5 ug/mL
# Assay type: functional, cell-based
structure (smiles),measurement,value
Nc1c2c(c3nc4ccccc4c4c3c1N=C4)NCCC2=O,Activity,Active
